In patent US20250197343A1, “CATIONIC LIPID” (TAKEDA PHARMACEUTICAL COMPANY LIMITED, priority 2021, published 2025):

Key:
[1] = Particle size of Luc DNA-encapsulated lipid nanoparticles; format: physicochemical; details: cationic lipid:DPPC:cholesterol:GM-020=60:10.6:28:1.4 molar ratio
From the text: The particle size of the lipid particle (in the composition) can be measured by a known approach. For example, the particle size can be calculated as a Z-average particle size by the cumulant analysis of an autocorrelation function using a particle size measurement apparatus Zetasizer Nano ZS (Malvern Instruments) based on a dynamic light scattering measurement technique. The particle size (average particle size) of the lipid particle (in the composition) is, for example, 10 to 200 nm, preferably 60 to 170 nm.
(§1) A lipid mixture containing a cationic lipid of the Examples shown in Table 2 (cationic lipid:DPPC:cholesterol:GM-020=60:10.6:28:1.4, molar ratio) was dissolved in 90% of EtOH and 10% of water to obtain a 15.0 mg/ml lipid solution. Luciferase (luc) DNA (manufactured by Nature Technology Corp.) was dissolved in a 10 mM MES buffer solution (pH 5.5) to obtain a 0.3 mg/ml nucleic acid solution. The obtained lipid solution and nucleic acid solution were mixed at a flow rate ratio of 3 ml/min:6 ml/min at room temperature using NanoAssemblr (manufactured by Precision NanoSystems Inc.) to obtain a dispersion containing Luc DNA-encapsulated lipid nanoparticles. The obtained dispersion was dialyzed against water at room temperature for 1 hour and against PBS at 4° C. for 23 hours using Slyde-A-Lyzer (molecular weight cutoff: 20 K, Thermo Fischer Scientific Inc.). Subsequently, the dialysate was filtered through a 0.2 µm syringe filter (Iwaki). A 60% solution of sucrose in PBS was added thereto, and the mixture was preserved as a 20% solution of sucrose in PBS at −80° C. Analysis results of particle size and rate of encapsulation of the Luc DNA-encapsulated lipid nanoparticles are also shown in Table 2.

[2] = Rate of encapsulation of Luc DNA in lipid nanoparticles; format: physicochemical; parameters: unit: %; details: Luc DNA-encapsulated lipid nanoparticles; cationic lipid:DPPC:cholesterol:GM-020=60:10.6:28:1.4 molar ratio
From the text: The concentration and rate of encapsulation of the nucleic acid (e.g., siRNA or mRNA) in the composition of the present invention can be measured by a known approach. For example, the nucleic acid is fluorescently labeled using Quant-iT™ RiboGreen® (Invitrogen Corp.), and the fluorescence intensity can be measured to determine the concentration and the rate of encapsulation. The concentration of the nucleic acid in the composition can be calculated using a calibration curve prepared from aqueous nucleic acid solutions having known concentrations. The rate of encapsulation can be calculated on the basis of the difference in fluorescence intensity between the presence and absence of addition of Triton-X 100 (surfactant for disrupting the lipid particle). The concentration of the nucleic acid in the composition refers to the total concentration of a nucleic acid encapsulated in the lipid particle and an unencapsulated nucleic acid. The rate of encapsulation refers to the ratio of the nucleic acid encapsulated in the lipid particle to all nucleic acids in the composition.
as §1

ICrl:CD1 (ICR) mice = experiment: Mouse bioluminescence imaging evaluation (Test Example 1); format: in vivo; details: Luc DNA-encapsulated lipid nanoparticles 10 mL/kg i.v. to ICR mice; IVIS total flux 15 minutes after luciferin i.p.
Method: The Luc DNA-encapsulated lipid nanopatricles obtained in the aforesaid Production Example were intravenously administered to the tails of ICrl:CD1 (ICR) mice (10 mL/kg i.v.). After administration of the lipid particles, luciferin (15 mg/mL) was administered to the mice (10 mL/kg i.p.), which were loaded in an IVIS (in vivo imaging system) apparatus (manufactured by PerkinElmer, Inc.) under isoflurane inhalation anesthesia. Luminescence images of the mice were taken ventrally (in a supine position) 15 minutes after luciferin administration. The luminescence was digitized with the software of IVIS, followed by evaluation using the value of total flux. Higher luminescence means strong expression of the protein encoded by the DNA encapsulate in the lipid particle. In Table 2, higher luminescence is indicated on a scale of A, B and C in order. A represents luminescence of 3.0E+07 or more, B represents luminescence of 1.0E+0.7 or more and less than 3.0E+07, and C represents luminescence of less than 1.0E+07.

CCCCCCCCC(C(=O)OC)C(=O)OCC(COC(=O)CCCN(CC)C(C)C)(COC(=O)CC(CCCCC)CCCCC)COC(=O)C(CCCCCCCC)C(=O)OC (stereo not drawn) [Example 133, 1,1′-(2-[({4-[Ethyl(propan-2-yl)amino]butanoyl}oxy)methyl]-2-{[(3-pentyloctanoyl)oxy]methyl}propane-1,3-diyl) 3,3′-dimethyl bis(octylpropanedioate)]
Particle size (nm) [1]: 133.4 nm
Rate of encapsulation [2]: 95.3
Luminescence (ICrl:CD1 (ICR) mice): C (C represents luminescence of less than 1.0E+07)

CCCCCC(CCCCC)CC(=O)OCC(COC(=O)CCCCC(=O)OCCCC)(COC(=O)CCN(C)C)COC(=O)CC(CCCCC)CCCCC [Example 19, Butyl 2-{[(N,N-dimethyl-beta-alanyl)oxy]methyl}-3-[(3-pentyloctanoyl)oxy]-2-{[(3-pentyloctanoyl)oxy]methyl}propyl hexanedioate]
Particle size (nm) [1]: 89.8 nm
Rate of encapsulation [2]: 95.4
Luminescence (ICrl:CD1 (ICR) mice): B (B represents luminescence of 1.0E+0.7 or more and less than 3.0E+07)

CCCCCCCCCCOC(=O)CC(=O)OCC(COC(=O)CCCN(C)C)(COC(=O)CC(=O)OCCCCCCCCCC)COC(=O)CC(CCCCC)CCCCC [Example 71, 1,1′-Didecyl 3,3′-[2-({[4-(dimethylamino)butanoyl]oxy}methyl)-2-{[(3-pentyloctanoyl)oxy]methyl}propane-1,3-diyl] dipropanedioate]
Particle size (nm) [1]: 97.2 nm
Rate of encapsulation [2]: 92.6
Luminescence (ICrl:CD1 (ICR) mice): A (A represents luminescence of 3.0E+07 or more)

CCCCCC(CCCCC)CC(=O)OCC(COC(=O)CCCCCCCC(=O)OC)(COC(=O)CCCN(C)C)COC(=O)CC(CCCCC)CCCCC [Example 36, 2-({[4-(Dimethylamino)butanoyl]oxy}methyl)-3-[(3-pentyloctanoyl)oxy]-2-{[(3-pentyloctanoyl)oxy]methyl}propyl methyl nonanedioate]
Particle size (nm) [1]: 127.9 nm
Rate of encapsulation [2]: 95.1
Luminescence (ICrl:CD1 (ICR) mice): B (B represents luminescence of 1.0E+0.7 or more and less than 3.0E+07)

CCCCCC(CCCCC)CC(=O)OCC(COC(=O)CCCCC(=O)OCCCC)(COC(=O)CCCN(C)C)COC(=O)CC(CCCCC)CCCCC [Example 20, Butyl 2-({[4-(dimethylamino)butanoyl]oxy}methyl)-3-[(3-pentyloctanoyl)oxy]-2-{[(3-pentyloctanoyl)oxy]methyl}propyl hexanedioate]
Particle size (nm) [1]: 104.2 nm
Rate of encapsulation [2]: 97.2
Luminescence (ICrl:CD1 (ICR) mice): B (B represents luminescence of 1.0E+0.7 or more and less than 3.0E+07)

CCCCCCCCOC(=O)CCCCC(=O)OCC(COC(=O)CCCCC(=O)OCCCCCCCC)(COC(=O)CCCN(C)C)COC(=O)CC(CCCCC)CCCCC [Example 43, 1,1′-[2-({[4-(Dimethylamino)butanoyl]oxy}methyl)-2-{[(3-pentyloctanoyl)oxy]methyl}propane-1,3-diyl] 6,6′-dioctyl dihexanedioate]
Particle size (nm) [1]: 126.7 nm
Rate of encapsulation [2]: 96.0
Luminescence (ICrl:CD1 (ICR) mice): A (A represents luminescence of 3.0E+07 or more)

CCCCCCCCCCC(C(=O)OC)C(=O)OCC(COC(=O)CCCN(CC)C(C)C)(COC(=O)CC(CCCCC)CCCCC)COC(=O)C(CCCCCCCCCC)C(=O)OC (stereo not drawn) [Example 135, 1,1′-(2-[({4-[Ethyl(propan-2-yl)amino]butanoyl}oxy)methyl]-2-{[(3-pentyloctanoyl)oxy]methyl}propane-1,3-diyl) 3,3′-dimethyl bis(decylpropanedioate)]
Particle size (nm) [1]: 80.1 nm
Rate of encapsulation [2]: 97.1
Luminescence (ICrl:CD1 (ICR) mice): A (A represents luminescence of 3.0E+07 or more)

CCCCCCCCCCC(C(=O)OC)C(=O)OCC(COC(=O)CCCN(C)C)(COC(=O)CC(CCCCC)CCCCC)COC(=O)C(CCCCCCCCCC)C(=O)OC (stereo not drawn) [Example 134, 1,1′-[2-({[4-(Dimethylamino)butanoyl]oxy}methyl)-2-{[(3-pentyloctanoyl)oxy]methyl}propane-1,3-diyl] 3,3′-dimethyl bis(decylpropanedioate)]
Particle size (nm) [1]: 103.0 nm
Rate of encapsulation [2]: 94.5
Luminescence (ICrl:CD1 (ICR) mice): A (A represents luminescence of 3.0E+07 or more)

CCCCCC(CCCCC)CC(=O)OCC(COC(=O)CCCCCCCCCCC(=O)OC)(COC(=O)CCCCCCCCCCC(=O)OC)COC(=O)CCCN(C)C [Example 77, 1,1′-[2-({[4-(Dimethylamino)butanoyl]oxy}methyl)-2-{[(3-pentyloctanoyl)oxy]methyl}propane-1,3-diyl] 12,12′-dimethyl didodecanedioate]
Particle size (nm) [1]: 128.7 nm
Rate of encapsulation [2]: 73.5
Luminescence (ICrl:CD1 (ICR) mice): B (B represents luminescence of 1.0E+0.7 or more and less than 3.0E+07)

CCCCCCCOC(=O)CCCCC(=O)OCC(COC(=O)CCCCC(=O)OCCCCCCC)(COC(=O)CCCN(C)CCCO)COC(=O)CC(CCCCC)CCCCC [Example 94, 1,1′-Diheptyl 6,6′-(2-[({4-[(3-hydroxypropyl)(methyl)amino]butanoyl}oxy)methyl]-2-{[(3-pentyloctanoyl)oxy]methyl}propane-1,3-diyl) dihexanedioate]
Particle size (nm) [1]: 129.4 nm
Rate of encapsulation [2]: 93.0
Luminescence (ICrl:CD1 (ICR) mice): C (C represents luminescence of less than 1.0E+07)

CCCCCC(CCCCC)COC(=O)CCC(=O)OCC(COC(=O)CCCCN(C)C)(COC(=O)CCC(=O)OCC(CCCCC)CCCCC)COC(=O)CCC(=O)OCC(CCCCC)CCCCC [Example 38, 1,1′ {2-({[5-(Dimethylamino)pentanoyl]oxy}methyl)-2-[({4-oxo-4-[(2-pentylheptyl)oxy]butanoyl}oxy)methyl]propane-1,3-diyl} 4,4′-bis(2-pentylheptyl) dibutanedioate]
Particle size (nm) [1]: 131.3 nm
Rate of encapsulation [2]: 95.2
Luminescence (ICrl:CD1 (ICR) mice): A (A represents luminescence of 3.0E+07 or more)

CCCCCC(CCCCC)CC(=O)OCC(COC(=O)CCCCCCCC(=O)OCCCC)(COC(=O)CCCCCCCC(=O)OCCCC)COC(=O)CCCN(C)C [Example 33, 1,1′-Dibutyl 9,9′-[2-({[4-(dimethylamino)butanoyl]oxy}methyl)-2-{[(3-pentyloctanoyl)oxy]methyl}propane-1,3-diyl] dinonanedioate]
Particle size (nm) [1]: 145.7 nm
Rate of encapsulation [2]: 89.9
Luminescence (ICrl:CD1 (ICR) mice): B (B represents luminescence of 1.0E+0.7 or more and less than 3.0E+07)

CCCCCCOC(=O)C(CCCCCC)C(=O)OCC(COC(=O)CCCCN(C)C)(COC(=O)CC(CCCCC)CCCCC)COC(=O)C(CCCCCC)C(=O)OCCCCCC (stereo not drawn) [Example 122, 1,1′-[2-({[5-(Dimethylamino)pentanoyl]oxy}methyl)-2-{[(3-pentyloctanoyl)oxy]methyl}propane-1,3-diyl] 3,3′-dihexyl bis(hexylpropanedioate)]
Particle size (nm) [1]: 152.1 nm
Rate of encapsulation [2]: 96.0
Luminescence (ICrl:CD1 (ICR) mice): B (B represents luminescence of 1.0E+0.7 or more and less than 3.0E+07)

CCCCCCOC(=O)CCCCCCCC(=O)OCC(COC(=O)CCCN(C)C)(COC(=O)CC(CCCCC)CCCCC)COC(=O)CC(CCCCC)CCCCC [Example 63, 2-({[4-(Dimethylamino)butanoyl]oxy}methyl)-3-[(3-pentyloctanoyl)oxy]-2-{[(3-pentyloctanoyl)oxy]methyl}propyl hexyl nonanedioate]
Particle size (nm) [1]: 90.9 nm
Rate of encapsulation [2]: 98.2
Luminescence (ICrl:CD1 (ICR) mice): C (C represents luminescence of less than 1.0E+07)
